Results as given in the NIST ThermoML archive (doi:10.1016/j.jct.2010.04.013).
± gives the expanded uncertainty stated by the source.

Assay: mn = molality of the nth substance listed, in mol/kg
Conditions: 101 kPa, Liquid; for mass density: Vibrating tube method; for speed of sound: Pulse-echo method

[Mg+2].[O-][Cl+3]([O-])([O-])[O-].[O-][Cl+3]([O-])([O-])[O-] [magnesium perchlorate] + C[S+](C)[O-]
Conditions | mass density, 293.15 K [kg/m3] | mass density, 298.15 K [kg/m3] | mass density, 303.15 K [kg/m3] | mass density, 313.15 K [kg/m3] | mass density, 323.15 K [kg/m3] | mass density, 333.15 K [kg/m3] | speed of sound, 298.15 K [m/s]
m1 = 0.02171 | 1103.82 ± 0.23 | 1098.81 ± 0.23 | 1093.8 ± 0.23 | 1083.79 ± 0.23 | 1073.79 ± 0.23 | 1063.78 ± 0.23 | –
m1 = 0.03119 | 1105.4 ± 0.23 | 1100.4 ± 0.23 | 1095.39 ± 0.23 | 1085.4 ± 0.23 | 1075.41 ± 0.23 | 1065.42 ± 0.23 | 1486.8 ± 1.3
m1 = 0.04163 | 1107.14 ± 0.23 | 1102.15 ± 0.23 | 1097.16 ± 0.23 | 1087.18 ± 0.23 | 1077.2 ± 0.23 | 1067.23 ± 0.23 | 1487.7 ± 1.3
m1 = 0.05295 | 1109.04 ± 0.23 | 1104.04 ± 0.23 | 1099.06 ± 0.23 | 1089.1 ± 0.23 | 1079.15 ± 0.23 | 1069.19 ± 0.23 | 1488.7 ± 1.3
m1 = 0.06473 | 1111.01 ± 0.23 | 1106.03 ± 0.23 | 1101.06 ± 0.23 | 1091.11 ± 0.23 | 1081.18 ± 0.23 | 1071.25 ± 0.23 | 1489.7 ± 1.3
m1 = 0.08226 | 1113.97 ± 0.24 | 1109 ± 0.24 | 1104.04 ± 0.23 | 1094.12 ± 0.23 | 1084.21 ± 0.23 | 1074.31 ± 0.23 | 1491.1 ± 1.3
m1 = 0.1041 | 1117.67 ± 0.24 | 1112.71 ± 0.24 | 1107.76 ± 0.24 | 1097.88 ± 0.24 | 1088 ± 0.23 | 1078.12 ± 0.23 | 1493 ± 1.3
m1 = 0.1277 | 1121.69 ± 0.24 | 1116.74 ± 0.24 | 1111.81 ± 0.24 | 1101.96 ± 0.24 | 1092.12 ± 0.24 | 1082.29 ± 0.24 | 1494.8 ± 1.3
m1 = 0.1481 | 1125.19 ± 0.24 | 1120.27 ± 0.24 | 1115.34 ± 0.24 | 1105.52 ± 0.24 | 1095.7 ± 0.24 | 1085.9 ± 0.24 | 1496.7 ± 1.3
m1 = 0.1734 | 1129.53 ± 0.25 | 1124.62 ± 0.25 | 1119.72 ± 0.24 | 1109.94 ± 0.24 | 1100.17 ± 0.24 | 1090.39 ± 0.24 | 1498.8 ± 1.3
m1 = 0.1952 | 1133.31 ± 0.25 | 1128.4 ± 0.25 | 1123.52 ± 0.25 | 1113.77 ± 0.25 | 1104.03 ± 0.24 | 1094.3 ± 0.24 | 1500.8 ± 1.3
